According to ChEMBL document CHEMBL3734705, “Synthesis and in vitro cytotoxicity of novel C-12 substituted-14-deoxy-andrographolide derivatives as potent anti-cancer agents” (2015):
Active and inactive are the calls of the source. The calls are words filed in the database; no cut-off is given here.

How the values were obtained:
[1] = Cytotoxicity against human RPMI8226 cells assessed as growth level at 10 uM after 48 hrs by SRB assay; format: functional, RPMI-8226
EKVX = experiment: Cytotoxicity against human EKVX cells assessed as growth level at 10 uM after 48 hrs by SRB assay; format: functional
[2] = Cytotoxicity against human HOP62 cells assessed as growth level at 10 uM after 48 hrs by SRB assay; format: functional, HOP-62
NCI-H522 = experiment: Cytotoxicity against human NCI-H522 cells assessed as growth level at 10 uM after 48 hrs by SRB assay; format: functional
[3] = Cytotoxicity against human COLO205 cells assessed as growth level at 10 uM after 48 hrs by SRB assay; format: functional, COLO 205
HT-29 [4] = experiment: Cytotoxicity against human HT-29 cells assessed as growth level at 10 uM after 48 hrs by SRB assay; format: functional
[5] = Cytotoxicity against human SW620 cells assessed as growth level at 10 uM after 48 hrs by SRB assay; format: functional, SW-620
[6] = Cytotoxicity against human SF268 cells assessed as growth level at 10 uM after 48 hrs by SRB assay; format: functional, SF-268
[7] = Cytotoxicity against human SF539 cells assessed as growth level at 10 uM after 48 hrs by SRB assay; format: functional, SF-539
[8] = Cytotoxicity against human LOXIMVI cells assessed as growth level at 10 uM after 48 hrs by SRB assay; format: functional, LOX IMVI
M14 = experiment: Cytotoxicity against human M14 cells assessed as growth level at 10 uM after 48 hrs by SRB assay; format: functional
MDA-MB-435 [9] = experiment: Cytotoxicity against human MDA-MB-435 cells assessed as growth level at 10 uM after 48 hrs by SRB assay; format: functional
[10] = Cytotoxicity against human UACC257 cells assessed as growth level at 10 uM after 48 hrs by SRB assay; format: functional, UACC-257
[11] = Cytotoxicity against human IGROV1 cells assessed as growth level at 10 uM after 48 hrs by SRB assay; format: functional, IGROV-1
[12] = Cytotoxicity against human OVCAR8 cells assessed as growth level at 10 uM after 48 hrs by SRB assay; format: functional, OVCAR-8
[13] = Cytotoxicity against human SKOV3 cells assessed as growth level at 10 uM after 48 hrs by SRB assay; format: functional, SK-OV-3
786-0 [14] = experiment: Cytotoxicity against human 786-0 cells assessed as growth level at 10 uM after 48 hrs by SRB assay; format: functional
A498 = experiment: Cytotoxicity against human A498 cells assessed as growth level at 10 uM after 48 hrs by SRB assay; format: functional
[15] = Cytotoxicity against human TK10 cells assessed as growth level at 10 uM after 48 hrs by SRB assay; format: functional, TK-10
[16] = Cytotoxicity against human Hs578T cells assessed as growth level at 10 uM after 48 hrs by SRB assay; format: functional, Hs-578T
MDA-MB-468 [17] = experiment: Cytotoxicity against human MDA-MB-468 cells assessed as growth level at 10 uM after 48 hrs by SRB assay; format: functional
[18] = Cytotoxicity against human HL-60(TB) cells assessed as growth inhibition at 10 uM after 48 hrs by SRB assay; format: functional; settings: HL-60, 48 h, read-out: GI
A549 = experiment: Cytotoxicity against human A549 cells assessed as growth inhibition at 10 uM after 48 hrs by SRB assay; format: functional; settings: A549, 48 h, read-out: GI
[19] = Cytotoxicity against human HOP62 cells assessed as growth inhibition at 10 uM after 48 hrs by SRB assay; format: functional; settings: HOP-62, 48 h, read-out: GI
NCI-H226 = experiment: Cytotoxicity against human NCI-H226 cells assessed as growth inhibition at 10 uM after 48 hrs by SRB assay; format: functional; settings: NCI-H226, 48 h, read-out: GI
NCI-H322M = experiment: Cytotoxicity against human NCI-H322M cells assessed as growth inhibition at 10 uM after 48 hrs by SRB assay; format: functional
[20] = Cytotoxicity against human COLO205 cells assessed as growth inhibition at 10 uM after 48 hrs by SRB assay; format: functional; settings: COLO 205, 48 h, read-out: GI
HT-29 [21] = experiment: Cytotoxicity against human HT-29 cells assessed as growth inhibition at 10 uM after 48 hrs by SRB assay; format: functional; settings: HT-29, 48 h, read-out: GI
[22] = Cytotoxicity against human SF295 cells assessed as growth inhibition at 10 uM after 48 hrs by SRB assay; format: functional; settings: SF-295, 48 h, read-out: GI
[23] = Cytotoxicity against human SNB75 cells assessed as growth inhibition at 10 uM after 48 hrs by SRB assay; format: functional; settings: SNB-75, 48 h, read-out: GI
[24] = Cytotoxicity against human LOXIMVI cells assessed as growth inhibition at 10 uM after 48 hrs by SRB assay; format: functional; settings: LOX IMVI, read-out: GI
MDA-MB-435 [25] = experiment: Cytotoxicity against human MDA-MB-435 cells assessed as growth inhibition at 10 uM after 48 hrs by SRB assay; format: functional; settings: MDA-MB-435, 48 h, read-out: GI
[26] = Cytotoxicity against human UACC62 cells assessed as growth inhibition at 10 uM after 48 hrs by SRB assay; format: functional; settings: UACC-62, 48 h, read-out: GI
[27] = Cytotoxicity against human OVCAR4 cells assessed as growth inhibition at 10 uM after 48 hrs by SRB assay; format: functional; settings: OVCAR-4, 48 h, read-out: GI
[28] = Cytotoxicity against human SKOV3 cells assessed as growth inhibition at 10 uM after 48 hrs by SRB assay; format: functional; settings: SK-OV-3, 48 h, read-out: GI
786-0 [29] = experiment: Cytotoxicity against human 786-0 cells assessed as growth inhibition at 10 uM after 48 hrs by SRB assay; format: functional; settings: 786-0, 48 h, read-out: GI
[30] = Cytotoxicity against human Caki1 cells assessed as growth inhibition at 10 uM after 48 hrs by SRB assay; format: functional; settings: CAKI-1, 48 h, read-out: GI
[31] = Cytotoxicity against human TK10 cells assessed as growth inhibition at 10 uM after 48 hrs by SRB assay; format: functional; settings: TK-10, 48 h, read-out: GI
[32] = Cytotoxicity against human PC3 cells assessed as growth inhibition at 10 uM after 48 hrs by SRB assay; format: functional; settings: PC-3, 48 h, read-out: GI
MCF7 = experiment: Cytotoxicity against human MCF7 cells assessed as growth inhibition at 10 uM after 48 hrs by SRB assay; format: functional; settings: MCF7, 48 h, read-out: GI
MDA-MB-231 = experiment: Cytotoxicity against human MDA-MB-231 cells assessed as growth inhibition at 10 uM after 48 hrs by SRB assay; format: functional; settings: MDA-MB-231, 48 h, read-out: GI
MDA-MB-468 [33] = experiment: Cytotoxicity against human MDA-MB-468 cells assessed as growth inhibition at 10 uM after 48 hrs by SRB assay; format: functional; settings: MDA-MB-468, 48 h, read-out: GI
CCRF-CEM = experiment: Cytotoxicity against human CCRF-CEM cells assessed as growth level at 10 uM after 48 hrs by SRB assay; format: functional
[34] = Cytotoxicity against human HL-60(TB) cells assessed as growth level at 10 uM after 48 hrs by SRB assay; format: functional

C=C1CC[C@@H]2[C@](C)(COC(C)=O)[C@H](OC(C)=O)CC[C@@]2(C)[C@@H]1CC(NC1CCCC1)C1=CCOC1=O (some centres undefined)
Activity [1]: 37.5%
Activity (EKVX): 52.44%
Activity [2]: 94.41%
Activity (NCI-H522): 45.56%
Activity [3]: 75.23%
Activity (HT-29 [4]): 75.54%
Activity [5]: 67.48%
Activity [6]: 76.66%
Activity [7]: 89.44%
Activity [8]: 68.48%
Activity (M14): 79.06%
Activity (MDA-MB-435 [9]): 75.73%
Activity [10]: 38.37%
Activity [11]: 88.25%
Activity [12]: 53.68%
Activity [13]: 87.88%
Activity (786-0 [14]): 92.51%
Activity (A498): 68%
Activity [15]: 87.06%
Activity [16]: 74.91%
Activity (MDA-MB-468 [17]): 34.72%
inhibition of growth at 10 µM [18]: 57.3%
inhibition of growth at 10 µM (A549): 26.4%
inhibition of growth at 10 µM [19]: 5.59%
inhibition of growth at 10 µM (NCI-H226): 15.5%
growth inhibition (GI) (NCI-H322M): inactive
inhibition of growth at 10 µM [20]: 24.8%
inhibition of growth at 10 µM (HT-29 [21]): 24.5%
inhibition of growth at 10 µM [22]: 9.61%
inhibition of growth at 10 µM [23]: 32%
inhibition of growth at 10 µM [24]: 31.5%
inhibition of growth at 10 µM (MDA-MB-435 [25]): 24.3%
inhibition of growth at 10 µM [26]: 34.4%
inhibition of growth at 10 µM [27]: 41.6%
inhibition of growth at 10 µM [28]: 12.1%
inhibition of growth at 10 µM (786-0 [29]): 7.49%
inhibition of growth at 10 µM [30]: 39.3%
inhibition of growth at 10 µM [31]: 12.9%
inhibition of growth at 10 µM [32]: 55.3%
inhibition of growth at 10 µM (MCF7): 27.6%
inhibition of growth at 10 µM (MDA-MB-231): 19.6%
inhibition of growth at 10 µM (MDA-MB-468 [33]): 65.3%
Activity (CCRF-CEM): 63.47%
Activity [34]: 42.67%
